Measurements from patent publication US8426386B2, “NK1 receptor antagonist composition” (Lion Corporation, priority 2006, dated 2013).

System: NK1 receptor
Test: NK1 Receptor Antagonism Assay (calcium imaging, substance P stimulation)
Assay type: cell-based, human
Conditions: for Efficacy (NK1 receptor antagonistic activity grade): substance P 100 μM; for effect as the NK1 receptor antagonist (in words): summary of Table 1
Source text: [Performance Evaluation Test] NK1 Receptor Antagonism Assay
In this test, maltose, maltotriose, maltotetraose, maltopentaose, maltohexaose and maltoheptaose were purchased from SIGMA, isomaltose, isomaltotriose, isomaltotetraose, isomaltopentaose, isomaltohexaose and isomaltoheptaose were purchased from Seikagaku Corporation, and four types of oligosaccharides-1-kestose, fructofranosylnystose, nystose and galactotetraose—were purchased from Wako Pure Chemicals Industries Ltd. Each oligosaccharide was diluted with saline, and used.
In order to transiently express a cloned human NK1 receptor in HEK293, cDNA of the human NK1 receptor was cut out from pCDM8 (Invitrogen), and cloned in an expression vector pCDM9 derived by inserting an ampicillin resistant gene (BLUESCRIPT, nucleotides 1973 to 2964 from SK+) at a SacII site.
HEK293 cells were seeded at 1×10^5 cells in a Falcon dish (diameter: 3.5 cm) using α-MEM medium (Gibco) containing 10% bovine fetal serum, and cultured in a 5% CO2 incubator at 37° C. overnight. Then, 20 μg of the expression vector was transfected using Transfection Reagent FuGENE6 (Roche) according to attached instructions, and the transfectants were incubated at 37° C. for 3 days and assayed by a calcium imaging method.
According to Renganathan et al's method (Renganathan M et al., J. Neurophysiol., 84(2), […] (2000)), nerve cells were dispersed and isolated from spinal dorsal root ganglion in a wild type mouse, and 1×10^5 thereof were seeded in a 24-well plate coated with poly-L-lysine. The cells were cultured in 90% DMEM medium (GIBCO) supplemented with 10% bovine fetal serum, 2 mM glutamine, 100 U/mL of penicillin/streptomycin, 100 ng/mL of NGF (SIGMA) and 5 μM cytosine arabinoside (SIGMA) under 5% CO2 at 37° C. The cells were cultured for 1 to 3 weeks, and subsequently subjected to a calcium imaging analysis. A half of the nerve cells was identified to be positive for the NK1 receptor by staining the nerve cells derived from spinal dorsal root ganglion in the wild type mouse with an anti-NK1 receptor antibody (supplied from CHEMICON International).
The cells which express the NK1 receptor transiently or constitutively were subjected to measurement using a high resolution digital B/W cooling CCD camera (ORCA supplied from Hamamatsu Photonics K.K.), and their images were analyzed using an analysis software (AQUA COSMOS supplied from Hamamatsu Photonics K.K.). When the cells were labeled for calcium, Fluo4-AM (supplied from Molecular Probe) was used as a calcium sensitive dye. Fifty μg of Fluo4-AM was dissolved in 400 μL of DMSO in a vial, 4 μL of Pluronic F-127 (Molecular Probe) was added and mixed, and then 4 mL of OPTI-MEM (GIBCO) was added thereto. The calcium sensitive dye solution thus prepared was added to the cells, which were then incubated at 37° C. for 60 minutes. An agonist, an antagonist and samples to be evaluated were prepared at concentrations which were 10 times higher than assay concentrations, and analyzed by adding a one tenth volume of the cell suspension upon analysis. All reagents and an assay temperature were kept at 37° C. For the cells transfected transiently, YFP reporter DNA fluorescence (excitation: 490 nm) was used for identifying the transfected cells. Upon measurement, a fluorescence intensity obtained by initially imaging the untreated cells was made an initial value. After passing one minute, a change of calcium/fluorescence intensity in the sample to be evaluated at the desired concentration was monitored with an interval of one second before and after the addition (2 to 5 minutes). Subsequently, substance P was added, and immediately after (2 to 5 minutes), an antagonistic activity of the sample to be evaluated was determined by monitoring the change of intracellular calcium concentrations as the change of the fluorescence intensities with the interval of one second. […]

[1] = evaluated concentration 0.1 ppm
[2] = evaluated concentration 100 ppm
[3] = evaluated concentration 1000 ppm

| efficacy at a low concentration (in words) (0.1 ppm) | Structure (SMILES) | Efficacy (NK1 receptor antagonistic activity grade) [1] | Efficacy (NK1 receptor antagonistic activity grade) (evaluated concentration 1 ppm) | Efficacy (NK1 receptor antagonistic activity grade) (evaluated concentration 10 ppm) | Efficacy (NK1 receptor antagonistic activity grade) [2] | Efficacy (NK1 receptor antagonistic activity grade) [3] | effect as the NK1 receptor antagonist (in words) |
| --- | --- | --- | --- | --- | --- | --- | --- |
| – | OC[C@H]1O[C@H](O[C@H]2[C@H](O)[C@@H](O)C(O)O[C@@H]2CO)[C@H](O)[C@@H](O)[C@@H]1O (mixture of isomers) [Maltose, maltose] | D (Ineffective: the antagonistic activity was less than 65%, or the stimulating or agonistic activity of the sample was strong.) | D (Ineffective: the antagonistic activity was less than 65%, or the stimulating or agonistic activity of the sample was strong.) | C (Slightly effective: the antagonistic activity was less than 65%, and a stimulating or agonistic activity of the sample was weak.) | C (Slightly effective: the antagonistic activity was less than 65%, and a stimulating or agonistic activity of the sample was weak.) | B (Effective: the antagonistic activity was 65% or more and less than 75% and the more excellent performance than in the positive control was shown.) | high effect |
| – | OC[C@H]1O[C@@](CO)(OC[C@@]2(O[C@H]3O[C@H](CO)[C@@H](O)[C@H](O)[C@H]3O)O[C@H](CO)[C@@H](O)[C@@H]2O)[C@@H](O)[C@@H]1O [Example 1-Kestose, 1-kestose, reference compound] | – | – | – | – | D (Ineffective: the antagonistic activity was less than 65%, or the stimulating or agonistic activity of the sample was strong.) | no NK1 receptor antagonistic activity was observed at all |
| – | OC[C@H]1O[C@@](CO)(OC[C@@]2(OC[C@@]3(OC[C@@]4(O[C@H]5O[C@H](CO)[C@@H](O)[C@H](O)[C@H]5O)O[C@H](CO)[C@@H](O)[C@@H]4O)O[C@H](CO)[C@@H](O)[C@@H]3O)O[C@H](CO)[C@@H](O)[C@@H]2O)[C@@H](O)[C@@H]1O [Fructofranosylnystose, fructofranosylnystose, reference compound] | – | – | – | – | D (Ineffective: the antagonistic activity was less than 65%, or the stimulating or agonistic activity of the sample was strong.) | no NK1 receptor antagonistic activity was observed at all |
| – | OC[C@H]1O[C@@H](O[C@@H]2[C@H](O)[C@@H](O)[C@H](O[C@@H]3[C@H](O)[C@@H](O)[C@H](O[C@@H]4[C@H](O)[C@@H](O)C(O)O[C@@H]4CO)O[C@@H]3CO)O[C@@H]2CO)[C@H](O)[C@@H](O)[C@H]1O (stereo partly shown) [Galactotetraose, galactotetraose, reference compound] | – | – | – | – | D (Ineffective: the antagonistic activity was less than 65%, or the stimulating or agonistic activity of the sample was strong.) | no NK1 receptor antagonistic activity was observed at all |
| – | OC[C@H]1O[C@H](OC[C@H]2O[C@H](OC[C@H]3O[C@H](OC[C@H]4O[C@H](OC[C@H]5O[C@H](OC[C@H]6O[C@H](OC[C@H]7OC(O)[C@H](O)[C@@H](O)[C@@H]7O)[C@H](O)[C@@H](O)[C@@H]6O)[C@H](O)[C@@H](O)[C@@H]5O)[C@H](O)[C@@H](O)[C@@H]4O)[C@H](O)[C@@H](O)[C@@H]3O)[C@H](O)[C@@H](O)[C@@H]2O)[C@H](O)[C@@H](O)[C@@H]1O (stereo partly shown) [Isomaltoheptaose, isomaltoheptaose, reference compound] | – | – | – | – | D (Ineffective: the antagonistic activity was less than 65%, or the stimulating or agonistic activity of the sample was strong.) | no NK1 receptor antagonistic activity was observed at all |
| – | OC[C@H]1O[C@H](OC[C@H]2O[C@H](OC[C@H]3O[C@H](OC[C@H]4O[C@H](OC[C@H]5O[C@H](OC[C@H]6OC(O)[C@H](O)[C@@H](O)[C@@H]6O)[C@H](O)[C@@H](O)[C@@H]5O)[C@H](O)[C@@H](O)[C@@H]4O)[C@H](O)[C@@H](O)[C@@H]3O)[C@H](O)[C@@H](O)[C@@H]2O)[C@H](O)[C@@H](O)[C@@H]1O (stereo partly shown) [Isomaltohexaose, isomaltohexaose, reference compound] | – | – | – | – | D (Ineffective: the antagonistic activity was less than 65%, or the stimulating or agonistic activity of the sample was strong.) | no NK1 receptor antagonistic activity was observed at all |
| – | OC[C@H]1O[C@H](OC[C@H]2O[C@H](OC[C@H]3O[C@H](OC[C@H]4O[C@H](OC[C@H]5OC(O)[C@H](O)[C@@H](O)[C@@H]5O)[C@H](O)[C@@H](O)[C@@H]4O)[C@H](O)[C@@H](O)[C@@H]3O)[C@H](O)[C@@H](O)[C@@H]2O)[C@H](O)[C@@H](O)[C@@H]1O (stereo partly shown) [Isomaltopentaose, isomaltopentaose, reference compound] | – | – | – | – | D (Ineffective: the antagonistic activity was less than 65%, or the stimulating or agonistic activity of the sample was strong.) | no NK1 receptor antagonistic activity was observed at all |
| – | OC[C@H]1O[C@H](OC[C@H]2OC(O)[C@H](O)[C@@H](O)[C@@H]2O)[C@H](O)[C@@H](O)[C@@H]1O (stereo partly shown) [Isomaltose, isomaltose, reference compound] | – | – | – | – | D (Ineffective: the antagonistic activity was less than 65%, or the stimulating or agonistic activity of the sample was strong.) | no NK1 receptor antagonistic activity was observed at all |
| – | OC[C@H]1O[C@H](OC[C@H]2O[C@H](OC[C@H]3O[C@H](OC[C@H]4OC(O)[C@H](O)[C@@H](O)[C@@H]4O)[C@H](O)[C@@H](O)[C@@H]3O)[C@H](O)[C@@H](O)[C@@H]2O)[C@H](O)[C@@H](O)[C@@H]1O (stereo partly shown) [Isomaltotetraose, isomaltotetraose, reference compound] | – | – | – | – | D (Ineffective: the antagonistic activity was less than 65%, or the stimulating or agonistic activity of the sample was strong.) | no NK1 receptor antagonistic activity was observed at all |
| – | OC[C@H]1O[C@H](OC[C@H]2O[C@H](OC[C@H]3OC(O)[C@H](O)[C@@H](O)[C@@H]3O)[C@H](O)[C@@H](O)[C@@H]2O)[C@H](O)[C@@H](O)[C@@H]1O (stereo partly shown) [Isomaltotriose, isomaltotriose, reference compound] | – | – | – | – | D (Ineffective: the antagonistic activity was less than 65%, or the stimulating or agonistic activity of the sample was strong.) | no NK1 receptor antagonistic activity was observed at all |
| high efficacy | OC[C@H]1O[C@H](O[C@H]2[C@H](O)[C@@H](O)[C@@H](O[C@H]3[C@H](O)[C@@H](O)[C@@H](O[C@H]4[C@H](O)[C@@H](O)C(O)O[C@@H]4CO)O[C@@H]3CO)O[C@@H]2CO)[C@H](O)[C@@H](O)[C@@H]1O (stereo partly shown) [Maltotetraose, maltotetraose] | B (Effective: the antagonistic activity was 65% or more and less than 75% and the more excellent performance than in the positive control was shown.) | A (Complete response: the antagonistic activity was 75% or more and much more excellent performance than in the positive control was shown.) | A (Complete response: the antagonistic activity was 75% or more and much more excellent performance than in the positive control was shown.) | A (Complete response: the antagonistic activity was 75% or more and much more excellent performance than in the positive control was shown.) | A (Complete response: the antagonistic activity was 75% or more and much more excellent performance than in the positive control was shown.) | high effect |
